{"source": "ChEMBL document CHEMBL1201862", "about": "“PubChem BioAssay data set” (2004)", "key": {"[1]": {"assay": "inhibitors of firefly luciferase expression or activity, dose response, H4 neuroglioma cells, luminescence (AID 1990)", "format": "functional, cell-based"}, "[2]": {"assay": "inhibitors of SNCA 5'UTR-driven reporter translation, confirmation, H4 neuroglioma cells, luminescence (AID 1988)", "format": "functional, cell-based"}, "[3]": {"assay": "Luminescence Cell-Based Dose Response HTS to Identify Inhibitors of 5'UTR Stem-Loop Driven Prion Protein mRNA Translation in H4 Neuroglioblastoma Cells. [Related pubchem assays: 1827 (Project Summary), 1813 (Primary HTS)]", "format": "functional"}, "[4]": {"assay": "Luminescence Cell-Based Dose Retest to Confirm Inhibitors of Cancer Stem Cells. [Related pubchem assays (depositor defined):AID2717, AID2721]", "format": "functional", "conditions": "Homo sapiens"}, "Cytochrome P450 2C9": {"biological_target": "Cytochrome P450 2C9 (Homo sapiens, UniProt P11712)", "sequence (P11712 whole entry)": "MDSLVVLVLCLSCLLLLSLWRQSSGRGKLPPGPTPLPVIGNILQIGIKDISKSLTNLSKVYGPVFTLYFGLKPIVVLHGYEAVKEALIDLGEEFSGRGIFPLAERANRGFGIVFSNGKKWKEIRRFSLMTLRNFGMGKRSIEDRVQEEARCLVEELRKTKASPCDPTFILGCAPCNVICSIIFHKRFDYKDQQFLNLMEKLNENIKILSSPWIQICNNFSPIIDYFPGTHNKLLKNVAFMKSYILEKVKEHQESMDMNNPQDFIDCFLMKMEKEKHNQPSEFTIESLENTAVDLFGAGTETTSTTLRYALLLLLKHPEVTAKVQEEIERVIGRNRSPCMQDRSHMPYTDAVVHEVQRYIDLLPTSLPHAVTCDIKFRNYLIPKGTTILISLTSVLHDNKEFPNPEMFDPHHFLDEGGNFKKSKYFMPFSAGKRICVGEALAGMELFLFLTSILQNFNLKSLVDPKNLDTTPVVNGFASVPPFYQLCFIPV"}, "Cytochrome P450 2C19": {"biological_target": "Cytochrome P450 2C19 (Homo sapiens, UniProt P33261)", "sequence (P33261 whole entry)": "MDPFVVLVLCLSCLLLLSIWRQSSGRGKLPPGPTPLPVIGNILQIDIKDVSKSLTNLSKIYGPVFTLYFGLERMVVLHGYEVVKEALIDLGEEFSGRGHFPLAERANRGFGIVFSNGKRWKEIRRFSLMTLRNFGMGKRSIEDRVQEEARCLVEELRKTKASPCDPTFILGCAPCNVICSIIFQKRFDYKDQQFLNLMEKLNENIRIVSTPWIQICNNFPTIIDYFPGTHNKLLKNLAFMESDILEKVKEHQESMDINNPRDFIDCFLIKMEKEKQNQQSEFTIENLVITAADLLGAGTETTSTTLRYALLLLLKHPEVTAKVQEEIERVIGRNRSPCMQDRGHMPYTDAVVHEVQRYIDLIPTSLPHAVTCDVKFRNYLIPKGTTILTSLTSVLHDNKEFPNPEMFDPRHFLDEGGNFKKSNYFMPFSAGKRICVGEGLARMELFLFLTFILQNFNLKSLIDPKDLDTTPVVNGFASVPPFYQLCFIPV", "assay": "Cytochrome panel assay with activity outcomes. Panel member name: p450-cyp2c19 Compounds with AC50 equal or less than 10 uM are considered active", "format": "functional"}, "Cytochrome P450 1A2": {"biological_target": "T1, Cytochrome P450 1A2 (Homo sapiens, UniProt P05177)", "T1 sequence (P05177 whole entry)": "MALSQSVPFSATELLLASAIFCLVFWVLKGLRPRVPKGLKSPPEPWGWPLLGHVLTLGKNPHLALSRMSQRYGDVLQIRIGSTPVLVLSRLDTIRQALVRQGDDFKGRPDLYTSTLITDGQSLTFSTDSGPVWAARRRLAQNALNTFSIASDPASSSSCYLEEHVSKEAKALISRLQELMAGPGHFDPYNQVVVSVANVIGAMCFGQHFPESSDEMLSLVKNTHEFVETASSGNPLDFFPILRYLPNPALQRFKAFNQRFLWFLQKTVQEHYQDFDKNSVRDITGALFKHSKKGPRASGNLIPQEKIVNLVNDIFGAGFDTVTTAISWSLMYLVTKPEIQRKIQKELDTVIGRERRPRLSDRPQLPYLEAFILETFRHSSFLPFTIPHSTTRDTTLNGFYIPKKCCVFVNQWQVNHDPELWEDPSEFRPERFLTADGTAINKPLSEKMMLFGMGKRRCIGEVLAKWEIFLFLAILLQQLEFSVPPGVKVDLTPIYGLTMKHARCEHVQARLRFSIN"}, "INS1": {"tested_on": "INS1", "assay": "beta cell apoptosis inhibitors, cytokine rescue, dose response, luminescence, retest (AID 449756);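 further: cell death triggered by IL-1 beta plus TNF-alpha plus IFN-gamma mixture; protective hits raise ATP signal compared with cytokine alone wells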", "format": "functional, cell-based", "conditions": "Rattus norvegicus"}, "H9c2": {"tested_on": "H9c2", "assay": "cells", "format": "functional, cell-based", "conditions": "Rattus norvegicus, H9c2, Myocardium"}, "[5]": {"assay": "inhibitors of intracellular T. cruzi replication, confirmation, NIH3T3 host cells, beta-gal luminescence (AID 2044);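 further: luminescent beta-galactosidase reporter signal from transgenic T. cruzi replicating inside host cells; inhibitors lower the luminescence signal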", "format": "functional, cell-based"}, "[6]": {"assay": "cytotoxicity toward NIH3T3 fibroblasts, dose response, counter-screen, cell-based, ATP luminescence, mouse fibroblasts (AID 2010);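 further: cells exposed to compound for about 90 hours before reading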", "format": "functional"}, "[7]": {"biological_target": "FAD-linked sulfhydryl oxidase ALR (Homo sapiens, UniProt P55789)", "sequence (P55789 whole entry)": "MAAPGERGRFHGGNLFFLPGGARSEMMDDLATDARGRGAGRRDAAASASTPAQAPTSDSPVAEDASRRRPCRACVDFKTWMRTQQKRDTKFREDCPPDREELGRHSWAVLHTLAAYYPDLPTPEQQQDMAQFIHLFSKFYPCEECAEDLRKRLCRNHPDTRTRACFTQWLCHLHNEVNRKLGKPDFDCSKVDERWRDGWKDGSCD", "assay": "inhibitors of human ALR sulfhydryl oxidase, dose response, biochemical, H2O2 detection, luminescence, cherry-pick (AID 493248)"}, "Cytochrome P450 3A4": {"biological_target": "Cytochrome P450 3A4 (Homo sapiens, UniProt P08684)", "sequence (P08684 whole entry)": "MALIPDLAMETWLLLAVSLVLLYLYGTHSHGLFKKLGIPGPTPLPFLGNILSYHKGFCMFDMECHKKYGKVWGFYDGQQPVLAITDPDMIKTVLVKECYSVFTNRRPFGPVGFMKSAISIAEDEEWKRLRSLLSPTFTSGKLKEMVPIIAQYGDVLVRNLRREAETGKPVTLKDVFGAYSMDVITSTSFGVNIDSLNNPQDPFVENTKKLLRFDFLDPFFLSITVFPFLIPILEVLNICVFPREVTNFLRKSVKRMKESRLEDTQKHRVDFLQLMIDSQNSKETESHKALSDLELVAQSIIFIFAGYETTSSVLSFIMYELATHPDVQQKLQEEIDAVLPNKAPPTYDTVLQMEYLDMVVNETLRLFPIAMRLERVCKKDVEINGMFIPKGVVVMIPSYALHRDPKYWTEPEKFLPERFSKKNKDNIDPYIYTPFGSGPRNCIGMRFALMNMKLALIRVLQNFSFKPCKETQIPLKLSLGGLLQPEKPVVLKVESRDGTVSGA"}, "Cytochrome P450 2D6": {"biological_target": "Cytochrome P450 2D6 (Homo sapiens, UniProt P10635)", "sequence (P10635 whole entry)": "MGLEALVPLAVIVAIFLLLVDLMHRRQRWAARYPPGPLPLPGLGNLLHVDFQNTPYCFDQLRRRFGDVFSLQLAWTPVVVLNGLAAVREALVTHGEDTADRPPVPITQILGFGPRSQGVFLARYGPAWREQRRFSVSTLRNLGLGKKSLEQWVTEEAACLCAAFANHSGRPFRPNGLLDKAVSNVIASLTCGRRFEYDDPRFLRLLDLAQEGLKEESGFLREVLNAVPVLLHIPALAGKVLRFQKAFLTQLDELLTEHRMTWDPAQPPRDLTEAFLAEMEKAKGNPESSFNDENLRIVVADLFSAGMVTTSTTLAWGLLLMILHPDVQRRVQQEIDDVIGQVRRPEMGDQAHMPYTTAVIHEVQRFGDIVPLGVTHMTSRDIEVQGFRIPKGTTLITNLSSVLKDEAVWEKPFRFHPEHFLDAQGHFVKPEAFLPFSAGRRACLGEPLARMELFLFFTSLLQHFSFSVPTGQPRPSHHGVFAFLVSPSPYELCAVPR"}, "Streptokinase A": {"biological_target": "T2, Streptokinase A (Streptococcus pyogenes serotype M1, UniProt P10520)", "T2 sequence (P10520 whole entry)": "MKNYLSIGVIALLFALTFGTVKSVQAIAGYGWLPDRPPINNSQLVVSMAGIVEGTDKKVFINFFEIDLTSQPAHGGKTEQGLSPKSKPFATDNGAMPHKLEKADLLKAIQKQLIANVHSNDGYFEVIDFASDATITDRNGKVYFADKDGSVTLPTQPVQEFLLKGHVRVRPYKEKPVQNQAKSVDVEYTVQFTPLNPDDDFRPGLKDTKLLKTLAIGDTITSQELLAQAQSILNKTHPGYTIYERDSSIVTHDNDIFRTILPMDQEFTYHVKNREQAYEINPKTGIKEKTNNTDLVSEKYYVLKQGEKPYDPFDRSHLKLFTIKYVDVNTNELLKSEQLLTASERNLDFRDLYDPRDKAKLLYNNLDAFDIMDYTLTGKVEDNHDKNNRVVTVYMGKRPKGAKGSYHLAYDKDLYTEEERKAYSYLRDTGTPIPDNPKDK", "assay": "S. pyogenes streptokinase expression inhibitors, potency, dose response, plasminogen activation absorbance, OD405 (AID 1914);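 further: secreted streptokinase activity via plasminogen activation per viability signal from cell pellet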", "format": "functional, Streptococcus pyogenes M1 GAS"}, "[8]": {"tested_on": "Streptococcus sp. 'group A'", "assay": "growth inhibition of control SK(-) GAS strain, dose response, counter-screen for streptokinase expression inhibitor project, luminescence, kanamycin, BacTiterGlo, confirmation (AID 1900)", "format": "functional, organism-based"}, "Streptococcus": {"tested_on": "Streptococcus", "assay": "Group A Streptococcus viability loss, dose response, counter-screen for streptokinase expression inhibitor project, luminescence, BacTiterGlo (AID 1915);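 further: potency for reduction of bacterial viability or growth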", "format": "functional, organism-based"}}, "note": "The source made the active and inactive calls.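 Wherever IC50 is given: confirmatory concentration-response retest of ultra-high-throughput screening hits for modulation of myocardial damage; cell death induced by hydrogen peroxide oxidative stress; compound pretreatment for 60 min then peroxide exposure for 2 h; potency is for protecting the cells against peroxide damage rather than for killing them.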", "data": [{"smiles": "CCOC(=O)c1[nH]c2ccccc2c1NC(=O)c1ccc(S(=O)(=O)N2CCCCC2)cc1", "values": [{"measurement": "EC50", "setting": "[1]", "result": "18.7 µM (active)"}, {"measurement": "EC50", "setting": "[2]", "result": "83.1 µM (active)"}, {"measurement": "EC50", "setting": "[3]", "result": "> 120 µM (not active)"}]}, {"smiles": "CC(=O)Oc1ccc(C(=O)Nc2ccc(C3(C#N)CCCC3)cc2)cc1", "values": [{"measurement": "AC50", "setting": "[4]", "result": "1.83 µM (active)"}]}, {"smiles": "CCN1CCN(c2cc3nc(C)n(Cc4ccccc4)c(=O)c3cc2NC(=O)c2ccccc2F)CC1", "values": [{"measurement": "EC50", "setting": "[1]", "result": "8.04 µM (active)"}, {"measurement": "EC50", "setting": "[2]", "result": "8.28 µM (active)"}, {"measurement": "EC50", "setting": "[3]", "result": "8.79 µM (active)"}]}, {"smiles": "CCN(CC)Cc1c(O)c(Cl)cc2c3c(c(=O)oc12)CCCC3", "values": [{"measurement": "AC50", "setting": "Cytochrome P450 2C9", "result": "25.1 µM (inconclusive)"}, {"measurement": "AC50", "setting": "Cytochrome P450 2C19", "result": "inconclusive"}, {"measurement": "AC50", "setting": "Cytochrome P450 1A2", "result": "11.2 µM (inconclusive)"}]}, {"smiles": "O=C(Nc1ncnc2c1C(c1ccccc1)c1c(ccc3ccccc13)O2)c1ccccc1", "note": "(stereo not drawn)", "values": [{"measurement": "AC50", "setting": "INS1", "result": "20.6 µM (active)"}]}, {"smiles": "Cc1c(C(=O)NCCCN2CCCCC2)oc2ccc3c(c12)C(O)CC1(CCCCC1)O3", "note": "(stereo not drawn)", "values": [{"measurement": "EC50", "setting": "[1]", "result": "> 120 µM (not active)"}, {"measurement": "EC50", "setting": "[2]", "result": "> 120 µM (not active)"}, {"measurement": "EC50", "setting": "[3]", "result": "> 120 µM (not active)"}]}, {"smiles": "COc1ccc(-c2cc(C(=O)Nc3ccccc3N3CCOCC3)c3ccccc3n2)cc1OC", "values": [{"measurement": "IC50", "setting": "H9c2", "result": "> 79 µM (inactive)"}]}, {"smiles": "CCC[N+]1(CC#CCC(c2ccccc2)c2ccccc2)CCCCC1", "values": [{"measurement": "AC50", "setting": "INS1", "result": "1.67 µM (active)"}, {"measurement": "EC50", "setting": "[5]", "result": "767 nM (active)"}, {"measurement": "EC50", "setting": "[6]", "result": "> 60 µM (not active)"}]}, {"smiles": "N#Cc1c(-c2ccco2)cc(-c2ccccn2)nc1N", "values": [{"measurement": "IC50", "setting": "H9c2", "result": "14.3 µM (active)"}]}, {"smiles": "c1ccc2c(CCNc3ncnc4nc[nH]c34)c[nH]c2c1", "values": [{"measurement": "AC50", "setting": "[7]", "result": "3.85 µM (active)"}]}, {"smiles": "Cc1cccc(C(C)C)c1NC(=O)C(C)OC(=O)Cc1nnc(O)c2ccccc12", "note": "(stereo not drawn)", "values": [{"measurement": "IC50", "setting": "H9c2", "result": "21.1 µM (active)"}]}, {"smiles": "Cc1nc2cncnc2n(-c2ccccc2)c1=O", "values": [{"measurement": "AC50", "setting": "Cytochrome P450 2C9", "result": "39.8 µM (inconclusive)"}, {"measurement": "AC50", "setting": "Cytochrome P450 3A4", "result": "12.6 µM (inconclusive)"}, {"measurement": "AC50", "setting": "Cytochrome P450 1A2", "result": "10 µM (inconclusive)"}]}, {"smiles": "CCCC/C=C/C(NC(=O)C(C)(C)C)c1ccccc1", "note": "(stereo not drawn)", "values": [{"measurement": "AC50", "setting": "Cytochrome P450 2D6", "result": "20 µM (inconclusive)"}, {"measurement": "AC50", "setting": "Cytochrome P450 2C9", "result": "39.8 µM (inconclusive)"}, {"measurement": "AC50", "setting": "Cytochrome P450 1A2", "result": "20 µM (inconclusive)"}]}, {"smiles": "CCCCn1cnc2c(c(CC#N)nn2-c2ccccc2)c1=N", "values": [{"measurement": "AC50", "setting": "Cytochrome P450 2C19; read-out: AC50", "result": "6.31 µM (inconclusive)"}, {"measurement": "AC50", "setting": "Cytochrome P450 1A2", "result": "1 µM (inconclusive)"}]}, {"smiles": "CCOc1cccc(-c2nn3c(-c4ccco4)nnc3s2)c1", "values": [{"measurement": "IC50", "setting": "H9c2", "result": "> 79 µM (inactive)"}]}, {"smiles": "CC(C)c1cc(-c2cc(-c3ccccc3)on2)nc(NC2CCCC2)n1", "values": [{"measurement": "AC50", "setting": "[4]", "result": "10.1 µM (active)"}]}, {"smiles": "O=C(NCCNS(=O)(=O)c1ccccc1Cl)c1cc(OCC(F)(F)F)ccc1OCC(F)(F)F", "values": [{"measurement": "AC50", "setting": "Cytochrome P450 2D6", "result": "22.4 µM (inconclusive)"}, {"measurement": "AC50", "setting": "Cytochrome P450 2C9", "result": "12.6 µM (inconclusive)"}, {"measurement": "AC50", "setting": "Cytochrome P450 1A2", "result": "31.6 µM (inconclusive)"}]}, {"smiles": "O=C(NCc1ccco1)C(c1ccccc1)N(C(=O)Cc1cccs1)c1ccccc1F", "note": "(stereo not drawn)", "values": [{"measurement": "IC50", "setting": "H9c2", "result": "> 79 µM (inactive)"}]}, {"smiles": "COc1ccc(C(=O)N2CCC3(CC2)CCN(c2ccncc2)CC3)cc1", "values": [{"measurement": "AC50", "setting": "Cytochrome P450 2D6", "result": "15.8 µM (inconclusive)"}, {"measurement": "AC50", "setting": "Cytochrome P450 3A4", "result": "15.8 µM (inconclusive)"}, {"measurement": "AC50", "setting": "Cytochrome P450 1A2", "result": "39.8 µM (inconclusive)"}]}, {"smiles": "Cn1c(=O)[nH]c(=O)c2c1nc(N1CCC(Cc3ccccc3)CC1)n2Cc1ccccc1", "values": [{"measurement": "EC50", "setting": "[1]", "result": "19.4 µM (active)"}, {"measurement": "EC50", "setting": "[2]", "result": "56.4 µM (active)"}, {"measurement": "EC50", "setting": "Streptokinase A", "result": "18 µM (active)"}, {"measurement": "EC50", "setting": "[3]", "result": "> 120 µM (not active)"}, {"measurement": "EC50", "setting": "[8]", "result": "4.39 µM (active)"}, {"measurement": "EC50", "setting": "Streptococcus", "result": "> 150 µM (not active)"}]}, {"smiles": "Cn1c(=O)n(CCc2ccccc2)c(=O)c2c1nc1n2CCN1Cc1ccco1", "values": [{"measurement": "IC50", "setting": "H9c2", "result": "10.5 µM (active)"}]}, {"smiles": "COC(=O)c1ccc(CSc2nc(O)c3cnn(-c4ccc(C)cc4)c3n2)o1", "values": [{"measurement": "EC50", "setting": "[1]", "result": "23.9 µM (active)"}, {"measurement": "EC50", "setting": "[2]", "result": "> 120 µM (not active)"}, {"measurement": "EC50", "setting": "[3]", "result": "> 120 µM (not active)"}]}]}
